Reference: patent US8039481B2, “Tetrahydrofuran derivatives for use as inhibitors of matrix metalloproteinases” (Sanofi-Aventis, priority 2005, dated 2011)

Legend:
Assay type in all cases: biochemical
[1] = target: T1, catalytic domain of human stromelysin (MMP-3) (Homo sapiens, UniProt P08254); assay: Enzymatic activity of the catalytic domain of human stromelysin (MMP-3), fluorogenic substrate
T1 construct: Preparation and determination of the enzymatic activity of the catalytic domain of human stromelysin (MMP-3); made in house
T1 sequence (P08254 100-272 limits assumed): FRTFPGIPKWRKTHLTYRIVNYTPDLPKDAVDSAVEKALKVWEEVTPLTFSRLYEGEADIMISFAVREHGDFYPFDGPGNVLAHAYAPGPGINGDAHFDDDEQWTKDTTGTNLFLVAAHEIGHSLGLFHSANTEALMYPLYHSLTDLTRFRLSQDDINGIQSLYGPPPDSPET
Method: (§1) Preparation and determination of the enzymatic activity of the catalytic domain of human stromelysin (MMP-3) and of neutrophil collagenase (MMP-8). The two enzymes stromelysin (MMP-3) and neutrophil collagenase (MMP-8) were prepared by the method of Ye et al. (Biochemistry; 31 (1992) pages 11 231-11 235). The enzymic activity or the effect of the enzyme inhibitor was measured by incubating 10 μl of enzyme solution with 10 μl of a 3% strength (v/v) buffered dimethyl sulfoxide solution which contained the enzyme inhibitor where appropriate, for 15 minutes. After addition of 10 μl of a 3% strength (v/v) aqueous dimethyl sulfoxide solution which contained 1 mmol/l of the substrate, the enzymic reaction was followed by fluorescence spectroscopy (328 nm (ex)/393 nm(em)).
(§2) The enzymic activity is presented as increase in extinction/minute. The IC50 values listed in Table 2 were determined as the inhibitor concentrations leading in each case to 50% inhibition of the enzyme.
(§3) The buffer solution contained 0.05% Brij (Sigma, Deisenhofen, Germany) and 0.1 mol/l Tris/HCl, 0.1 mol/l NaCl, 0.01 mol/l CaCl2 and 0.1 mol/l piperazine-N,N′-bis[2-ethanesulfonic acid] (pH=7.5).
(§4) The MMP-3 enzyme solution contained 2.3 μg/ml and the MMP-8 enzyme solution 0.6 μg/ml of one of the enzyme domains prepared by the method of Ye et al. The substrate solution contained 1 mmol/l of the fluorogenic substrate (7-methoxycoumarin-4-yl)acetyl-Pro-Leu-Gly-Leu-3-(2′,4′-dinitrophenyl)-L-2,3-diaminopropionyl-Ala-Arg-NH2 (Bachem, Heidelberg, Germany).

[2] = target: catalytic domain of human gelatinase-A (MMP-2) (Homo sapiens, UniProt P08253); assay: Enzymatic activity of the catalytic domain of human gelatinase-A (MMP-2), fluorogenic substrate
Sequence of catalytic domain of human gelatinase-A (MMP-2) (P08253 110-465 limits assumed): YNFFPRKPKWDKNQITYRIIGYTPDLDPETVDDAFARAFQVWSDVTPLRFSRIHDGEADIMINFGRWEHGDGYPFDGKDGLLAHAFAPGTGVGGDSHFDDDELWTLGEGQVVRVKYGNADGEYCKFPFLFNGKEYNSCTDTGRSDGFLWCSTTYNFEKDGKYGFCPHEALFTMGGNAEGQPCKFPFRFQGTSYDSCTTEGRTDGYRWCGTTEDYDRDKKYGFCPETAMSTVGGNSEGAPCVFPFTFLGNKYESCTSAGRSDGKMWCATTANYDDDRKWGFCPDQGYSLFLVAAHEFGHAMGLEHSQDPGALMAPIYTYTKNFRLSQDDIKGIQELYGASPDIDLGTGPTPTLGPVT
Method: Determination of the Enzymatic Activity of the Catalytic Domain of Human Gelatinase-A (MMP-2)
(§5) Activation of the proenzyme: 2 parts by volume of proenzyme were incubated with 1 part by volume of APMA solution at 37° C. for 0.5 hours. The APMA solution was prepared from a 10 mmol/l p-aminophenylmercuric acetate solution in 0.1 mmol/l NaOH by dilution with 3 parts by volume of Tris/HCl buffer pH 7.5 (see below). The pH was adjusted to between 7.0 and 7.5 by adding 1 mmol/l HCl. After activation of the enzyme it was diluted with the Tris/HCl buffer to a concentration of 0.83 μg/ml.
(§6) The enzymic activity was measured by incubating 10 μl of enzyme solution with 10 μl of a 3% strength (v/v) buffered dimethyl sulfoxide solution (reaction 1) for 15 minutes. The enzyme inhibitor activity was measured by incubating 10 μl of enzyme solution with 10 μl of a 3% strength (v/v) buffered dimethyl sulfoxide solution which contained the enzyme inhibitor (reaction 2).
The enzymic reaction both in the case of reaction 1 and in the case of reaction 2 was followed after addition of 10 μl of a 3% strength (v/v) aqueous dimethyl sulfoxide solution which contained 0.3 mmol/l of the substrate by fluorescence spectroscopy (328 nm (extinction)/393 nm (emission)).
The enzymic activity has been presented as increase in extinction/minute. The effect of the inhibitor was calculated as percentage inhibition by the following formula: % inhibition=100−[(increase in extinction/minute in reaction 2)/(increase in extinction/minute in reaction 1)×100].
(§7) The IC50, which is the concentration of inhibitor which is necessary for 50% inhibition of the enzymic activity, was determined graphically by plotting the percentage inhibitions at various inhibitor concentrations.
(§8) The buffer solution contained 0.05% Brij (Sigma, Deisenhofen, Germany) and 0.1 mol/l Tris/HCl, 0.1 mol/l NaCl, 0.01 mol/l CaCl2 (pH=7.5). The enzyme solution contained 0.83 μg/ml of the enzyme domain. The substrate solution contained 0.3 mmol/l of the fluorogenic substrate (7-methoxycoumarin-4-yl)acetyl-Pro-Leu-Gly-Leu-3-(2′,4′-dinitrophenyl)-L-2,3-diaminopropionyl-Ala-Arg-NH2 (Bachem, Heidelberg, Germany).

[3] = target: T2, catalytic domain of neutrophil collagenase (MMP-8) (Homo sapiens, UniProt P22894); assay: Enzymatic activity of the catalytic domain of neutrophil collagenase (MMP-8), fluorogenic substrate
T2 construct: catalytic domain of human stromelysin (MMP-3) and of neutrophil collagenase (MMP-8); made in house
T2 sequence (P22894 100-262 limits assumed): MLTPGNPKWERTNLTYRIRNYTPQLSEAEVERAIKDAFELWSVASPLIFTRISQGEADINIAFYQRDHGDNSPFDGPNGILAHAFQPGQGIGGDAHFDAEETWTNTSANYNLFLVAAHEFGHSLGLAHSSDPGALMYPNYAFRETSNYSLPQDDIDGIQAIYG
Method: as §1, §2, §3, §4

[4] = target: catalytic domain of human gelatinase-A (MMP-9) (Homo sapiens, UniProt P14780); assay: Enzymatic activity of the catalytic domain of human gelatinase-A (MMP-9), fluorogenic substrate
Sequence of catalytic domain of human gelatinase-A (MMP-9) (P14780 107-444 limits assumed): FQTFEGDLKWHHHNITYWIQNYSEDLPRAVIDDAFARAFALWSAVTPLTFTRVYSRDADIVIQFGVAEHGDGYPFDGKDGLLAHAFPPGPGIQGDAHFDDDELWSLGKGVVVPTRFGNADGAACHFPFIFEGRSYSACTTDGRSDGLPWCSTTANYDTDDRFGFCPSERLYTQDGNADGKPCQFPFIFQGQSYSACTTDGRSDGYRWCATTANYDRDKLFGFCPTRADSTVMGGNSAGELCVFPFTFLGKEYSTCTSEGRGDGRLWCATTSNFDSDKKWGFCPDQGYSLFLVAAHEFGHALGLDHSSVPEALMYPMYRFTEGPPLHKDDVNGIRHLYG
Method: Determination of the Enzymatic Activity of the Catalytic Domain of Human Gelatinase-A (MMP-9)
Activation of the proenzyme:
as §5, with “2” for “Activation of the proenzyme: 2”, “4” for “0.5”, “4.2 mU/ml.” for “0.83 μg/ml.”
as §6
The enzymic reaction both in the case of reaction 1 and in the case of reaction 2 was followed after addition of 10 μl of a 3% strength (v/v) aqueous dimethyl sulfoxide solution which contained 0.15 mmol/l of the substrate by fluorescence spectroscopy (328 nm (extinction)/393 nm (emission)).
The enzymic activity has been presented as increase in extinction/minute.
The effect of the inhibitor was calculated as percentage inhibition by the following formula: % inhibition=100−[(increase in extinction/minute in reaction 2)/(increase in extinction/minute in reaction 1)×100].
as §7
as §8, with “4.2 mU/ml” for “0.83 μg/ml”, “0.15” for “0.3”

SMILES | IC50 [1] | IC50 [2] | IC50 [3] | IC50 [4]
O=C(O)C1C2CCOC2CCN1S(=O)(=O)c1ccc(-c2ccc(Cl)cc2)cc1 (centres unmarked) [Example 6, 5-(4′-chlorobiphenyl-4-sulfonyl)octahydrofuro[3,2-c]pyridine-4-carboxylic acid] | 3500 nM | 38 nM | 54 nM | 2200 nM
O=C(NO)C1C2CCOC2CCN1S(=O)(=O)c1ccc(-c2ccc(Cl)cc2)cc1 (centres unmarked) [Example 7, 5-(4′-chlorobiphenyl-4-sulfonyl)octahydrofuro[3,2-c]pyridine-4-(N-hydroxy)-carboxamide] | 29 nM | 1.7 nM | 2.4 nM | 2.4 nM
O=C(NO)[C@H]1[C@H]2CCO[C@H]2CCN1S(=O)(=O)c1ccc(-c2ccc(Cl)cc2)cc1 [Example 8] | 13 nM | 0.8 nM | 1 nM | 1.5 nM
O=C(NO)[C@@H]1[C@@H]2CCO[C@@H]2CCN1S(=O)(=O)c1ccc(-c2ccc(Cl)cc2)cc1 [Example 9] | 1100 nM | 71 nM | 170 nM | 120 nM
O=C(O)C1C2CCOC2CCN1S(=O)(=O)c1ccc(Oc2ccc(F)cc2)cc1 (centres unmarked) [Example 10, 5-[4-(4-fluorophenoxy)benzenesulfonyl]octahydrofuro[3,2-c]pyridine-4-carboxylic acid] | > 10000 nM | 440 nM | 410 nM | 2500 nM
O=C(NO)C1C2CCOC2CCN1S(=O)(=O)c1ccc(Oc2ccc(F)cc2)cc1 (centres unmarked) [Example 11, 5-[4-(4-fluorophenoxy)benzenesulfonyl]octahydrofuro[3,2-c]pyridine-4-(N-hydroxy)-carboxamide] | 34 nM | 2 nM | 6 nM | 3 nM
O=C(NO)[C@H]1[C@H]2CCO[C@H]2CCN1S(=O)(=O)c1ccc(Oc2ccc(F)cc2)cc1 [Example 12] | 14 nM | 0.8 nM | 2 nM | 1.3 nM
O=C(NO)[C@@H]1[C@@H]2CCO[C@@H]2CCN1S(=O)(=O)c1ccc(Oc2ccc(F)cc2)cc1 [Example 13] | 1500 nM | 47 nM | 150 nM | 150 nM
O=C(NO)C1C2CCOC2CCN1S(=O)(=O)c1ccc(Oc2ccc(Cl)cc2)cc1 (centres unmarked) [Example 18, 5-[4-(4-chlorophenoxy)benzenesulfonyl]octahydrofuro[3,2-c]pyridine-4-(N-hydroxy)-carboxamide] | 27 nM | 2 nM | 24 nM | 2 nM
N#Cc1ccc(Oc2ccc(S(=O)(=O)N3CC[C@@H]4OCC[C@@H]4[C@@H]3C(=O)NO)cc2)cc1 [Example 21] | 17 nM | 1 nM | 2 nM | 8 nM
CS(=O)(=O)c1ccc(Oc2ccc(S(=O)(=O)N3CC[C@@H]4OCC[C@@H]4[C@@H]3C(=O)NO)cc2)cc1 [Example 23] | 15 nM | 1 nM | 2 nM | 5 nM
